IC50 and EC50 data for 15 compounds are collected here from patent US20230339981A1, “KRAS G12D MODULATING COMPOUNDS” (priority 2022, published 2023).

Molecules are shown by their SMILES.

One assay addresses GDP-loaded KRAS G12D (Homo sapiens (Human), UniProt P01116, G12D). Briefly: KRAS G12D (GDP) biochemical assay (TR-FRET probe displacement). The assay is classed as binding. Conditions: 2 hours. Here is the method: Example A. KRAS G12D (GDP) Biochemical Assay
Compounds were tested for binding to GDP-loaded KRAS G12D in a 384-well assay format using a TR-FRET probe displacement assay in buffer consisting of 50 mM Hepes (pH 7.4), 150 mM NaCl, 5 mM MgCl2 and 0.005% Tween-20. […] Compounds were serially diluted (1:3) in DMSO. The LabCyte ECHO Acoustic dispenser system was used to pre-spot the assay plates (384-well Non-Binding Surface plates, Corning, Catalog #3824) with 50 nL of compound. The compounds were pre-incubated with 5 μL of 2× final enzyme concentration for 30 minutes before adding 5 μL of 2× final concentration of Eu-streptavidin and TR-FRET probe (10 μL final reaction volume). The plates were incubated at room temperature for 2 hours before measuring TR-FRET ratio on the Envision plate reader. IC50 values were defined as the compound concentration that causes a 50% decrease in TR-FRET ratio and were calculated using a sigmoidal dose-response model to generate curve fits.

Another assay relates to GP2D (KRAS G12D) cells. The assay is described as follows: 2D cell viability assay (CellTiter-Glo). In kind it is cell-based. Conditions: GP2d, 96 h, 4 days. Here is the method: Example B. 2D Cell Viability Assay
Compounds were tested in a 384-well format for their ability to inhibit the viability of GP2D (KRAS G12D) cells in 2D assays. Compounds were serially diluted (1:3) in DMSO. The LabCyte ECHO Acoustic dispenser system was used to pre-spot assay plates with 200 nL of test molecule per well. 1000 cells/well (40 μL volume per well) in RPMI medium with 10% FBS, and Penicillin-Streptomycin-Glutamine were plated in pre-spotted 384-well plates (Greiner, Catalog #781076) on the BioTEK EL406 liquid dispenser with a 5 μL dispensing cassette (BioTek 7170011). The plates were incubated at 37° C., 5% CO2 for 4 days before addition of CellTiter-Glo (CTG) reagent and measurement of luminescence signal. EC50 values were defined as the compound concentration that causes a 50% decrease in luminescence signal and were calculated using a sigmoidal dose-response model to generate curve fits.

Chain of GDP-loaded KRAS G12D (P01116-2 other isoform, or with tags, fused parts or gaps G12D): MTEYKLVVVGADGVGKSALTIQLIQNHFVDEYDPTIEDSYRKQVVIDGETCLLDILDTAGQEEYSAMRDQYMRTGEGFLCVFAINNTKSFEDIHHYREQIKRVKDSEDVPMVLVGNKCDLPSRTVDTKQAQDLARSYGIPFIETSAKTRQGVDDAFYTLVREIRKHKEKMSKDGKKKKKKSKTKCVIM

Turning to `Oc1cc(-c2nc3c4c(nc(OC[C@@]56CCCN5C[C@H](F)C6)nc4c2F)N2C[C@H]4CC[C@H](N4)[C@H]2CO3)c2cc(F)ccc2c1` [Example 8, 6-fluoro-4-((5aS,6S,9R)-1-fluoro-12-(((2R,7aS)-2-fluorotetrahydro-1H-pyrrolizin-7a(5H)-yl)methoxy)-5a,6,7,8,9,10-hexahydro-5H-4-oxa-3,10a,11,13,14-pentaaza-6,9-methanonaphtho[1,8-ab]heptalen-2-yl)naphthalen-2-ol], the IC50 at GDP-loaded KRAS G12D was determined as 2 nM. This compound also yielded an EC50 with GP2D (KRAS G12D) cells of 54 nM.
The corresponding values for `Oc1cc(-c2nc3c4c(nc(OC[C@@]56CCCN5C[C@H](F)C6)nc4c2F)N2C[C@H]4CC[C@H](N4)[C@H]2CO3)c2c(C=C(F)F)c(F)ccc2c1` [Example 10, 5-(2,2-difluorovinyl)-6-fluoro-4-((5aS,6S,9R)-1-fluoro-12-(((2R,7aS)-2-fluorotetrahydro-1H-pyrrolizin-7a(5H)-yl)methoxy)-5a,6,7,8,9,10-hexahydro-5H-4-oxa-3,10a,11,13,14-pentaaza-6,9-methanonaphtho[1,8-ab]heptalen-2-yl)naphthalen-2-ol] are 18 nM and 250 nM.
In the case of `Oc1cc(-c2nc3c4c(nc(OC[C@@]56CCCN5C[C@H](F)C6)nc4c2F)N2C[C@H]4CC[C@H](N4)[C@H]2CO3)c2c(F)c(F)c(F)cc2c1` [Example 11, 5,6,7-trifluoro-4-((5aS,6S,9R)-1-fluoro-12-(((2R,7aS)-2-fluorotetrahydro-1H-pyrrolizin-7a(5H)-yl)methoxy)-5a,6,7,8,9,10-hexahydro-5H-4-oxa-3,10a,11,13,14-pentaaza-6,9-methanonaphtho[1,8-ab]heptalen-2-yl)naphthalen-2-ol], the half-inhibitory concentration (IC50) on GDP-loaded KRAS G12D was 1 nM. In addition, in the assay on GP2D (KRAS G12D) cells, the response was half-maximal at 56 nM (EC50).
The corresponding values for `Oc1cc(-c2nc3c4c(nc(OC[C@@]56CCCN5C[C@H](F)C6)nc4c2F)N2C[C@H]4CC[C@H](N4)[C@H]2CO3)c2c(F)c(F)c(F)c(F)c2c1` [Example 12, 5,6,7,8-tetrafluoro-4-((5aS,6S,9R)-1-fluoro-12-(((2R,7aS)-2-fluorotetrahydro-1H-pyrrolizin-7a(5H)-yl)methoxy)-5a,6,7,8,9,10-hexahydro-5H-4-oxa-3,10a,11,13,14-pentaaza-6,9-methanonaphtho[1,8-ab]heptalen-2-yl)naphthalen-2-ol] are 6 nM and 130 nM.
The corresponding values for `Oc1cc(-c2nc3c4c(nc(OC[C@@]56CCCN5C[C@H](F)C6)nc4c2F)N2C[C@H]4CC[C@H](N4)[C@H]2CO3)c2c(CC3CC3)c(F)ccc2c1` [Example 14, 5-(cyclopropylmethyl)-6-fluoro-4-((5aS,6S,9R)-1-fluoro-12-(((2R,7aS)-2-fluorotetrahydro-1H-pyrrolizin-7a(5H)-yl)methoxy)-5a,6,7,8,9,10-hexahydro-5H-4-oxa-3,10a,11,13,14-pentaaza-6,9-methanonaphtho[1,8-ab]heptalen-2-yl)naphthalen-2-ol] are 34 nM and 530 nM.
The like results for `Oc1cc(-c2nc3c4c(nc(OC[C@@]56CCCN5C[C@H](F)C6)nc4c2F)N2C[C@H]4CC[C@H](N4)[C@@H]2CO3)c2ccccc2c1` [Example 19, 4-((5aR,6S,9R)-1-fluoro-12-(((2R,7aS)-2-fluorotetrahydro-1H-pyrrolizin-7a(5H)-yl)methoxy)-5a,6,7,8,9,10-hexahydro-5H-4-oxa-3,10a,11,13,14-pentaaza-6,9-methanonaphtho[1,8-ab]heptalen-2-yl)naphthalen-2-ol] were, in that order, 590 nM and 3300 nM.
As to `C#Cc1c(F)ccc2cc(O)cc(-c3nc4c5c(nc(OCC6(CN7CCOCC7)CC6)nc5c3F)N3C[C@H]5CC[C@H](N5)[C@H]3CO4)c12` [Example 28, 5-ethynyl-6-fluoro-4-((5aS,6S,9R)-1-fluoro-12-((1-(morpholinomethyl)cyclopropyl)methoxy)-5a,6,7,8,9,10-hexahydro-5H-4-oxa-3,10a,11,13,14-pentaaza-6,9-methanonaphtho[1,8-ab]heptalen-2-yl)naphthalen-2-ol], the IC50 on GDP-loaded KRAS G12D turned out to be 0.6 nM. Moreover, the EC50 in the assay on GP2D (KRAS G12D) cells came out at 7 nM.
The corresponding values for `Fc1cccc2c(-c3nc4c5c(nc(OC[C@@]67CCCN6C[C@H](F)C7)nc5c3F)N3C[C@H]5CC[C@H](N5)[C@H]3CO4)cccc12` [Example 31, (5aS,6S,9R)-1-fluoro-2-(5-fluoronaphthalen-1-yl)-12-(((2R,7aS)-2-fluorotetrahydro-1H-pyrrolizin-7a(5H)-yl)methoxy)-5a,6,7,8,9,10-hexahydro-5H-4-oxa-3,10a,11,13,14-pentaaza-6,9-methanonaphtho[1,8-ab]heptalene] are 4900 nM and over 1000 nM.
The corresponding values for `C#Cc1c(F)ccc2cc(O)cc(-c3nc4c5c(nc(OCC6(CN7CCC(F)CC7)CC6)nc5c3F)N3C[C@H]5CC[C@H](N5)[C@H]3CO4)c12` [Example 32, 5-ethynyl-6-fluoro-4-((5aS,6S,9R)-1-fluoro-12-((1-((4-fluoropiperidin-1-yl)methyl)cyclopropyl)methoxy)-5a,6,7,8,9,10-hexahydro-5H-4-oxa-3,10a,11,13,14-pentaaza-6,9-methanonaphtho[1,8-ab]heptalen-2-yl)naphthalen-2-ol] are 0.2 nM and 2 nM.
The corresponding values for `C#Cc1c(F)ccc2cc(O)cc(-c3nc4c5c(nc(OCC6(CN7CCC[C@H](F)C7)CC6)nc5c3F)N3C[C@H]5CC[C@H](N5)[C@H]3CO4)c12` [Example 33, 5-ethynyl-6-fluoro-4-((5aS,6S,9R)-1-fluoro-12-((1-(((S)-3-fluoropiperidin-1-yl)methyl)cyclopropyl)methoxy)-5a,6,7,8,9,10-hexahydro-5H-4-oxa-3,10a,11,13,14-pentaaza-6,9-methanonaphtho[1,8-ab]heptalen-2-yl)naphthalen-2-ol] are 0.3 nM and 3 nM.
On GDP-loaded KRAS G12D, `C#Cc1c(F)ccc2cc(O)cc(-c3nc4c5c(nc(OCC6(CN7CCC[C@@H](F)C7)CC6)nc5c3F)N3C[C@H]5CC[C@H](N5)[C@H]3CO4)c12` [Example 34, 5-ethynyl-6-fluoro-4-((5aS,6S,9R)-1-fluoro-12-((1-(((R)-3-fluoropiperidin-1-yl)methyl)cyclopropyl)methoxy)-5a,6,7,8,9,10-hexahydro-5H-4-oxa-3,10a,11,13,14-pentaaza-6,9-methanonaphtho[1,8-ab]heptalen-2-yl)naphthalen-2-ol] returned an IC50 of 0.2 nM. Also, the EC50 with GP2D (KRAS G12D) cells is 2 nM.
In turn, `C#Cc1c(F)ccc2cc(O)cc(-c3nc4c5c(nc(OC[C@@]67CCCN6[C@H](CN=[N+]=[N-])CC7)nc5c3F)N3C[C@H]5CC[C@H](N5)[C@H]3CO4)c12` [Example 36, 4-((5aS,6S,9R)-12-(((3S,7aS)-3-(azidomethyl)tetrahydro-1H-pyrrolizin-7a(5H)-yl)methoxy)-1-fluoro-5a,6,7,8,9,10-hexahydro-5H-4-oxa-3,10a,11,13,14-pentaaza-6,9-methanonaphtho[1,8-ab]heptalen-2-yl)-5-ethynyl-6-fluoronaphthalen-2-ol] came in with an IC50 on GDP-loaded KRAS G12D of 0.2 nM. This compound registered an EC50 with GP2D (KRAS G12D) cells of 4 nM.
The like results for `Oc1cc(-c2nc3c4c(nc(OC[C@@]56CCCN5C[C@H](F)C6)nc4c2F)N2C[C@H]4CC[C@H](N4)[C@H]2CC3)c2c(OC3CC3)c(F)ccc2c1` [Example 37, 5-cyclopropoxy-6-fluoro-4-((5aR,6S,9R)-1-fluoro-12-(((2R,7aS)-2-fluorotetrahydro-1H-pyrrolizin-7a(5H)-yl)methoxy)-4,5,5a,6,7,8,9,10-octahydro-3,10a,11,13,14-pentaaza-6,9-methanonaphtho[1,8-ab]heptalen-2-yl)naphthalen-2-ol] were, in that order, 1 nM and 9 nM.
The corresponding values for `C#Cc1c(F)ccc2cc(O)cc(-c3nc4c5c(nc(OCC6(CN7CC[C@@H](C(F)(F)F)C7)CC6)nc5c3F)N3C[C@H]5CC[C@H](N5)[C@H]3CO4)c12` [Example 43, 5-ethynyl-6-fluoro-4-((5aS,6S,9R)-1-fluoro-12-((1-(((R)-3-(trifluoromethyl)pyrrolidin-1-yl)methyl)cyclopropyl)methoxy)-5a,6,7,8,9,10-hexahydro-5H-4-oxa-3,10a,11,13,14-pentaaza-6,9-methanonaphtho[1,8-ab]heptalen-2-yl)naphthalen-2-ol] are 0.6 nM and 5 nM.
At GDP-loaded KRAS G12D, `C#Cc1c(F)ccc2cc(O)cc(-c3nc4c5c(nc(OCC6(CN7CC[C@H](C(F)(F)F)C7)CC6)nc5c3F)N3C[C@H]5CC[C@H](N5)[C@H]3CO4)c12` [Example 44, 5-ethynyl-6-fluoro-4-((5aS,6S,9R)-1-fluoro-12-((1-(((S)-3-(trifluoromethyl)pyrrolidin-1-yl)methyl)cyclopropyl)methoxy)-5a,6,7,8,9,10-hexahydro-5H-4-oxa-3,10a,11,13,14-pentaaza-6,9-methanonaphtho[1,8-ab]heptalen-2-yl)naphthalen-2-ol] yielded an IC50 of 2 nM. The same compound had an EC50 in the assay on GP2D (KRAS G12D) cells of 7 nM.
